The structures appear in SMILES notation. The source made the active and inactive calls. Some results are limits rather than exact numbers.

The target of data set [1] is T1, Leucine aminopeptidase (Plasmodium falciparum 3D7, UniProt Q8IL11).
T1 sequence (Q8IL11 whole entry): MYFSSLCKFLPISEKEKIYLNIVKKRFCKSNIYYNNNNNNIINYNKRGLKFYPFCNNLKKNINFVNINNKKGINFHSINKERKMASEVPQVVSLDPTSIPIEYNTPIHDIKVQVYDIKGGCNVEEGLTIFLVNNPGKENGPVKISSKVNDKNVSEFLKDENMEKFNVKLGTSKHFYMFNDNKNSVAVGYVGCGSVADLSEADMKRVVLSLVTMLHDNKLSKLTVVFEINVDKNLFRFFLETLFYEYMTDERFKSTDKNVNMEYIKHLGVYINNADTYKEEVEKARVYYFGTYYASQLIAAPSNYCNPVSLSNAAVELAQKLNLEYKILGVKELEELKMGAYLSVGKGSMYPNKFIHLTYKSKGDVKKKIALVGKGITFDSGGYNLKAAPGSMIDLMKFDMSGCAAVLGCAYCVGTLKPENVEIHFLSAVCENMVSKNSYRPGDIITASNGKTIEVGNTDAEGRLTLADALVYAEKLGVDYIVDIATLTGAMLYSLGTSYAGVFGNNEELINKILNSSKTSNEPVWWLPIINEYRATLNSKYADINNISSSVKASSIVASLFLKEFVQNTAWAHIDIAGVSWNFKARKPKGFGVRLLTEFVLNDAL
Put plainly: P. falciparum M17LAP inhibitors, primary screen, biochemical, fluorogenic H-Leu-NHMec substrate, 1536-well (AID 1619). The data set is classed as functional.

Data set [2] concerns the target T2, Replicative DNA helicase DnaB (Mycobacterium tuberculosis, UniProt P9WMR3).
T2 sequence (P9WMR3 whole entry): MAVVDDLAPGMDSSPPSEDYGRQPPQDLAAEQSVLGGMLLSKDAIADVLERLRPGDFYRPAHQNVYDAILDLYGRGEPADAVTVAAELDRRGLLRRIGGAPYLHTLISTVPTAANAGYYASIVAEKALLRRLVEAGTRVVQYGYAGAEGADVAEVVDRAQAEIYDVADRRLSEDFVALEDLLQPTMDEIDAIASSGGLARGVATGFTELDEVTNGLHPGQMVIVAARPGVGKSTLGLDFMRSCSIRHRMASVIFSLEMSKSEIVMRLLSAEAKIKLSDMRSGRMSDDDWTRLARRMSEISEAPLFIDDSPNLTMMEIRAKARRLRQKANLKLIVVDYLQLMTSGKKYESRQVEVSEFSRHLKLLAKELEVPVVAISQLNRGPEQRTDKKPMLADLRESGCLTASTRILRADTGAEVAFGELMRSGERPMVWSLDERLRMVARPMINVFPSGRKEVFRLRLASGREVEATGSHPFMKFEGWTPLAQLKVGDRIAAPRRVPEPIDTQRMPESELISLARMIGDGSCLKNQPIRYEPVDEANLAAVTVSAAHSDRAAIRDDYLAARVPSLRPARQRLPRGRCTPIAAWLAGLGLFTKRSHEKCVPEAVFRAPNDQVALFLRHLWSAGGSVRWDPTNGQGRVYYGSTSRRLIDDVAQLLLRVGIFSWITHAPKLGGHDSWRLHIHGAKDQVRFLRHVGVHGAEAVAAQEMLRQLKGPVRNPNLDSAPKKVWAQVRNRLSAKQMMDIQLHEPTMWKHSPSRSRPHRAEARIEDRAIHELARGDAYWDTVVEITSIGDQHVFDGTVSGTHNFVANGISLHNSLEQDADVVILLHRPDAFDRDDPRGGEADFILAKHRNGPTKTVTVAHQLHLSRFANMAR
Put plainly: DnaB intein splicing inhibitors, dose response, biochemical, cell-free fluorescence (AID 449749). The format is functional.

The target of data set [3] is T3, Protein RecA (Mycobacterium tuberculosis, UniProt P9WHJ3).
T3 sequence (P9WHJ3 whole entry): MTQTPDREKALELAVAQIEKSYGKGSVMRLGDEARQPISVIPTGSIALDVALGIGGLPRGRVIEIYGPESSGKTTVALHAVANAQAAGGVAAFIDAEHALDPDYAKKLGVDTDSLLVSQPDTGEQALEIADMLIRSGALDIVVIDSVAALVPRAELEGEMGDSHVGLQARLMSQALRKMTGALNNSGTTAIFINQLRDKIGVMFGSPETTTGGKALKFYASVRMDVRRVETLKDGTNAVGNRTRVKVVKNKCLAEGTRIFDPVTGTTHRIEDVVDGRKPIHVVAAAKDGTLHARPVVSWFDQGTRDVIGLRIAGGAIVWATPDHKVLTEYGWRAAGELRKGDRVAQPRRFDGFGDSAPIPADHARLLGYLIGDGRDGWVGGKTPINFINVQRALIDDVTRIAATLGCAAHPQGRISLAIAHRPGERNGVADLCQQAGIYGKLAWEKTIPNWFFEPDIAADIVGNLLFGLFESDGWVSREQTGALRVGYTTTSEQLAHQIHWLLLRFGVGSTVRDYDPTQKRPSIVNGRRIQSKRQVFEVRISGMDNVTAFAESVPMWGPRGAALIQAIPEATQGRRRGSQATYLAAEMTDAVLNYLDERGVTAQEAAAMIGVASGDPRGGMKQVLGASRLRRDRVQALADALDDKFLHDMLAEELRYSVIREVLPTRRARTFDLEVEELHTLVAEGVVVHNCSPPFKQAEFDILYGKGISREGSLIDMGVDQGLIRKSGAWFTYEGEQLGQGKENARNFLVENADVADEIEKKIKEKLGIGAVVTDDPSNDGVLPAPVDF
Put plainly: Fluorescence Cell-Free Homogeneous Dose Retest to Identify Inhibitors of RecA-Intein Splicing Activity. [Related pubchem assays (depositor defined):AID2097, AID2223, AID489010, AID492950]. The format is functional.

Data set [4] has as its system HeLa. Put plainly: HeLa cell cytotoxicity, dose response, cytotoxicity control for MITF activator project, CellTiter-Glo luminescence, cherry-pick samples (AID 540259). The format is functional, cell-based. Particulars: Homo sapiens.
Data set [5] can be described thus: Vero E6 cell cytotoxicity, dose response, cytotoxicity control for non-replicating M. tuberculosis project, secondary assay (AID 492998). The data set is classed as functional, VeroE6. Particulars: Vero C1008.
A short description of data set [6]: THP-1 cell cytotoxicity, dose response, cytotoxicity control for non-replicating M. tuberculosis project (AID 489025). The format is functional.
Data set [7] in a line: cells. The format is functional.
Data set [8] addresses T4, Cytochrome P450 3A4 (Homo sapiens, UniProt P08684).
In data set [9] the target is Cytochrome P450 2C9 (Homo sapiens, UniProt P11712).
Chain of Cytochrome P450 2C9 (P11712 whole entry): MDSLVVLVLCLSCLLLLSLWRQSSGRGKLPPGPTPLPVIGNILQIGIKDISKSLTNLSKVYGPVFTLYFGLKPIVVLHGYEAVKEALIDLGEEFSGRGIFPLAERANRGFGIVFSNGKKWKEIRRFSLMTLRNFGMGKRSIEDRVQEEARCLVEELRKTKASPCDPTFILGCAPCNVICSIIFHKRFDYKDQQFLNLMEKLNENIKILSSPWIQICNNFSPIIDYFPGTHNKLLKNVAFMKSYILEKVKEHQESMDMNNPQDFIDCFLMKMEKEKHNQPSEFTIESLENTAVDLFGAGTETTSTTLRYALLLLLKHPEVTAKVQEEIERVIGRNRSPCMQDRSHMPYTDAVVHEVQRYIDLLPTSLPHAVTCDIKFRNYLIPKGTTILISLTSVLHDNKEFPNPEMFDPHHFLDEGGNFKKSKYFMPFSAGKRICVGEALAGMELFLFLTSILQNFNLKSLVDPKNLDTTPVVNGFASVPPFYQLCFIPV
Data set [10] deals with Cytochrome P450 2C19 (Homo sapiens, UniProt P33261). Put plainly: Cytochrome panel assay with activity outcomes. Panel member name: p450-cyp2c19 Compounds with AC50 equal or less than 10 uM are considered active. The data set is classed as functional. Particulars: read-out: AC50.
Chain of Cytochrome P450 2C19 (P33261 whole entry): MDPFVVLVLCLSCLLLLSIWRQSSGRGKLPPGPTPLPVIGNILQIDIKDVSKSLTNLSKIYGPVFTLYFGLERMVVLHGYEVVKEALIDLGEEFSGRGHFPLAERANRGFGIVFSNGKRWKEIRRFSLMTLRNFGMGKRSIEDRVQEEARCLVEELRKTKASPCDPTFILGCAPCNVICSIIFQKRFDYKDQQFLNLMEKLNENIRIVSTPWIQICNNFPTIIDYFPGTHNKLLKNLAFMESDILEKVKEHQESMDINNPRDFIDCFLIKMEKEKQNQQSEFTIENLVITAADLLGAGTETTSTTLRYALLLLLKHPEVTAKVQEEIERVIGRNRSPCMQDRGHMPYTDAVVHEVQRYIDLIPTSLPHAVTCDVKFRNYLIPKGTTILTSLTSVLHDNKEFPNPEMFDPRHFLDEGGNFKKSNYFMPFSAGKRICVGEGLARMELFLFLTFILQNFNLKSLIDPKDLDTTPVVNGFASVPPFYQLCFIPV
Data set [11] addresses T5, Streptokinase A (Streptococcus pyogenes serotype M1, UniProt P10520).
T5 sequence (P10520 whole entry): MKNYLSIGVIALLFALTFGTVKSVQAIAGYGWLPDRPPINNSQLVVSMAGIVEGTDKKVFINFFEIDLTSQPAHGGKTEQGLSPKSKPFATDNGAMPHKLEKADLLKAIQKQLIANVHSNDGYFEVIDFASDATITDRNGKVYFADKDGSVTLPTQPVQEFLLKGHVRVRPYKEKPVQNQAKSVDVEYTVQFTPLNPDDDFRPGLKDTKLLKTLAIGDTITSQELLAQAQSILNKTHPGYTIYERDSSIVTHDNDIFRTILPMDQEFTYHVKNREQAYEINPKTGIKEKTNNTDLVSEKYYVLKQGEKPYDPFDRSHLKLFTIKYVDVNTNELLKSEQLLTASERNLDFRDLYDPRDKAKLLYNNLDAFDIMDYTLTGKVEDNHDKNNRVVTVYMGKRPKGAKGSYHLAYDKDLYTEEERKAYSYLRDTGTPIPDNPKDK
Put plainly: S. pyogenes streptokinase expression inhibitors, potency, dose response, plasminogen activation absorbance, OD405 (AID 1914).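 Also: secreted streptokinase activity via plasminogen activation per viability signal from cell pellet.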 The data set is classed as functional, Streptococcus pyogenes M1 GAS.

Data set [12] concerns Streptococcus sp. 'group A'. Put plainly: growth inhibition of control SK(-) GAS strain, dose response, counter-screen for streptokinase expression inhibitor project, luminescence, kanamycin, BacTiterGlo, confirmation (AID 1900). The data set is classed as functional, organism-based.
Data set [13] concerns Streptococcus. Put plainly: Group A Streptococcus viability loss, dose response, counter-screen for streptokinase expression inhibitor project, luminescence, BacTiterGlo (AID 1915).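 Also: potency for reduction of bacterial viability or growth.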 The data set is classed as functional, organism-based.
Data set [14] relates to H4. Put plainly: Luminescence Cell-Based Dose Response HTS to Identify Activators of 5'UTR Stem-Loop Driven Prion Protein mRNA Translation in H4 Neuroglioblastoma Cells. [Related pubchem assays: 1829 (Project Summary), 1814 (Primary HTS)]. The format is functional. Particulars: Homo sapiens.
Data set [15] can be described thus: microbe, parasite or virus in culture. Particulars: Mycobacterium tuberculosis. The data set is classed as functional.
Data set [16] has as its target Nonstructural protein 1 (Influenza A virus, UniProt Q194T2). The format is functional, Influenza A virus (A/California/07/2009(H1N1)).
The test system of data set [17] is H9c2. Put plainly: cells. The format is functional, cell-based. The conditions noted are these: Rattus norvegicus, H9c2, Myocardium.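 Also: confirmatory concentration-response retest of ultra-high-throughput screening hits for modulation of myocardial damage; cell death induced by hydrogen peroxide oxidative stress; compound pretreatment for 60 min then peroxide exposure for 2 h; potency is for protecting the cells against peroxide damage rather than for killing them.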
For data set [18], the target named is Peroxisome proliferator-activated receptor gamma/Nuclear receptor coactivator 3 (Homo sapiens, UniProt P37231). The data set is classed as functional.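 Also: agonist potency for raising coactivator recruitment to the receptor.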
The nature of data set [19]: HeLa cell cytotoxicity, dose response, cytotoxicity control for MgcRacGAP inhibitor project (AID 624300). The format is functional.
Data set [20] has as its target Peroxisome proliferator-activated receptor gamma/Nuclear receptor coactivator 1 (Homo sapiens, UniProt P37231). The format is functional.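 Also: agonist potency as compounds enhance coactivator SRC-1 recruitment to PPARgamma.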
The target in data set [21] is T4, Cytochrome P450 3A4. The source holds these as a separate data set.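 Also: CYP3A4 tested as one member of a cytochrome P450 panel screen.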
Data set [22] concerns the target T6, Rac GTPase-activating protein 1 (Homo sapiens, UniProt Q9H0H5).
T6 sequence (Q9H0H5 whole entry): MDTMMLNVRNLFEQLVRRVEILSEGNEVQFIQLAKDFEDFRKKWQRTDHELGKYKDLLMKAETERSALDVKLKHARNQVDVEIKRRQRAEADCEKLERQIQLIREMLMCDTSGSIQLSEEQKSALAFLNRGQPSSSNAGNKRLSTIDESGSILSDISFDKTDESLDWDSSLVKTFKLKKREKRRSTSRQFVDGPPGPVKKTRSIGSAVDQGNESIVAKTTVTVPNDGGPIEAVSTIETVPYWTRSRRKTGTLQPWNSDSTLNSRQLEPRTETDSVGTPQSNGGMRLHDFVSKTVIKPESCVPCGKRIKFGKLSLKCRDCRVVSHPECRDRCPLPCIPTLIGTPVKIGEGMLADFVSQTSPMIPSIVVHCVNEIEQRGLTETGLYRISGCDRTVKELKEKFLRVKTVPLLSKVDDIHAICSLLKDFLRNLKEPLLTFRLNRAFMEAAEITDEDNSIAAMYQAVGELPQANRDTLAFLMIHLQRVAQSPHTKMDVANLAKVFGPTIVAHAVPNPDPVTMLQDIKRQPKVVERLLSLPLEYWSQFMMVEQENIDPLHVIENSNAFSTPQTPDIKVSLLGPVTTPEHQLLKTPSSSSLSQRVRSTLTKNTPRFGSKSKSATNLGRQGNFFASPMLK
Put plainly: MgcRacGAP GTPase-activating activity inhibitors, confirmation, biochemical, ADP Hunter fluorescence, primary and confirmatory (AID 624330). The data set is classed as functional.

Data set [23] addresses Peroxisome proliferator-activated receptor gamma/Nuclear receptor coactivator 2 (Homo sapiens, UniProt P37231). The format is functional.

T4 sequence (P08684 whole entry): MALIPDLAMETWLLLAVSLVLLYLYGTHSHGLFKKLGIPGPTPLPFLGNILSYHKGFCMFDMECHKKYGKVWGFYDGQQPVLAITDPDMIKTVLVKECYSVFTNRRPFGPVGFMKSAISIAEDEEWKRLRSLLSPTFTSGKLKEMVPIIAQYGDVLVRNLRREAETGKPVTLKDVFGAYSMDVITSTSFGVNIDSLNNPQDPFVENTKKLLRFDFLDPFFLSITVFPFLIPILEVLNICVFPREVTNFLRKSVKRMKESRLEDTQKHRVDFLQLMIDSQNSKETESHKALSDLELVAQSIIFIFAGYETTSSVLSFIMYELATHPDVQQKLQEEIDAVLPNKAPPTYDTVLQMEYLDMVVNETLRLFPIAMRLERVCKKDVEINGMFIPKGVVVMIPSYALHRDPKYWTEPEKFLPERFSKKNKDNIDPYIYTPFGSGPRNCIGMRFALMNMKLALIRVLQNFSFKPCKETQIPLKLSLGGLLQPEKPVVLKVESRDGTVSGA
Chain of Nonstructural protein 1 (Q194T2 whole entry): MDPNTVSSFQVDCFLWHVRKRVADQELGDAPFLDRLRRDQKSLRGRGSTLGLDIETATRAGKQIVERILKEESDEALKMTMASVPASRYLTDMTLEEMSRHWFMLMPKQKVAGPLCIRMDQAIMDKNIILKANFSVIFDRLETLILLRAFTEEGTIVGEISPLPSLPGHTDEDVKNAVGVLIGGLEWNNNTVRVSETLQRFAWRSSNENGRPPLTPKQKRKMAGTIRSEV
Chain of Peroxisome proliferator-activated receptor gamma/Nuclear receptor coactivator 2 (P37231 whole entry): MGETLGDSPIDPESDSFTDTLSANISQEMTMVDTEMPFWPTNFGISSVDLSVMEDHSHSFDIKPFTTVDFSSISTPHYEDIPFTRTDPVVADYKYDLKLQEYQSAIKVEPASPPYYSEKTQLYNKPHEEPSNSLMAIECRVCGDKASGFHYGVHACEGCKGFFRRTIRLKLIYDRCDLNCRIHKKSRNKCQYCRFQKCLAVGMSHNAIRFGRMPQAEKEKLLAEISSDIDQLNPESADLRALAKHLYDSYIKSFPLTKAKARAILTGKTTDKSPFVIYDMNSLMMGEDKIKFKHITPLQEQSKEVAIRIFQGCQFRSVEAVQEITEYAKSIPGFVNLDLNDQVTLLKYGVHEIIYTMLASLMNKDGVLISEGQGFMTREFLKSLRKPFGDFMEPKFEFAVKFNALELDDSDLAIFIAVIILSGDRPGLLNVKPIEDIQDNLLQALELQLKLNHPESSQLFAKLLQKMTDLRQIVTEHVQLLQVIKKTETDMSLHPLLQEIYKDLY
Chain of Peroxisome proliferator-activated receptor gamma/Nuclear receptor coactivator 2 (Q15596 whole entry, further chain): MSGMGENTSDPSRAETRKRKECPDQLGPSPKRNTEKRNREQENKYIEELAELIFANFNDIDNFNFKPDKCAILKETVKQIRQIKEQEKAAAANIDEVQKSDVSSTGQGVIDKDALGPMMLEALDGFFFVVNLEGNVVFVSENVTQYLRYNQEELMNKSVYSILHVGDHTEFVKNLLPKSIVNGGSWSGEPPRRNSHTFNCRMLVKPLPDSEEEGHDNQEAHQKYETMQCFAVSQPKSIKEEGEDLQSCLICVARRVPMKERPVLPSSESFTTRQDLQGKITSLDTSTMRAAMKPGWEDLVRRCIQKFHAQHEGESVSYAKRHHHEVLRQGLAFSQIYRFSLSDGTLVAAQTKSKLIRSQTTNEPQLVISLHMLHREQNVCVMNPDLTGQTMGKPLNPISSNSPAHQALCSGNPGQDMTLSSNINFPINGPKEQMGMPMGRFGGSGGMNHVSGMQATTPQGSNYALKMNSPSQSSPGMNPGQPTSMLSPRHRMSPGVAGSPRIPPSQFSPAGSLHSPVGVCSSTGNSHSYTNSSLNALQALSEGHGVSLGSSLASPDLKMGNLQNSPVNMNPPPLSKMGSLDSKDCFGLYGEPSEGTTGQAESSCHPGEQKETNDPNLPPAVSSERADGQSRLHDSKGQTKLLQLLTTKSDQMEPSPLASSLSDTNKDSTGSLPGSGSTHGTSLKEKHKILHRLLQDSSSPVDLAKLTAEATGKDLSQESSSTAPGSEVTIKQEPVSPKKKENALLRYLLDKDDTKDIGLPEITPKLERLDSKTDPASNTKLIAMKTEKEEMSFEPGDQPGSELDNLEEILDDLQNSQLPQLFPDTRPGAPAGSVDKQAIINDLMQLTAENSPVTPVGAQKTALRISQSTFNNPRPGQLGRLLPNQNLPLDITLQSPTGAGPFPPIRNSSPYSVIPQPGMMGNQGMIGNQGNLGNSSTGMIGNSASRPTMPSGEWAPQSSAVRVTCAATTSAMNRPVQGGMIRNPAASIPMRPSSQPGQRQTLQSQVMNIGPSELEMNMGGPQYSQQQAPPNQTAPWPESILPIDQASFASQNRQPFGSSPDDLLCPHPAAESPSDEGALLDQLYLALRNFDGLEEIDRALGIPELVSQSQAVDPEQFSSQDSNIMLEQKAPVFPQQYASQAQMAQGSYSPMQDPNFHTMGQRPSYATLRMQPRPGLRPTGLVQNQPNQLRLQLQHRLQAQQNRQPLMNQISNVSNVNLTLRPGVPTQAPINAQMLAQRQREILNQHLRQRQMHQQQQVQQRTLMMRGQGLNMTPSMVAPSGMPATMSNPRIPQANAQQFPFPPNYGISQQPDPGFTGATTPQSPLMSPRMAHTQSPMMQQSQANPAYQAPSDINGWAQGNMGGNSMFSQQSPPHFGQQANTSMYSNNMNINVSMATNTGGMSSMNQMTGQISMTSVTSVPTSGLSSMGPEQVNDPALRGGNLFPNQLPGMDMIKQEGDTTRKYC

Consider `Cc1c(Cl)cccc1NC(=O)CSCc1cc(=O)[nH][nH]1`, for which the IC50 in data set [1] is 62.3 µM (active). The AC50 in data set [2] was > 380 µM (inactive). The EC50 in [3] was > 380 µM (inconclusive).
On to `C=CCn1cccc(C(=O)Nc2ccc(Cl)cc2)c1=O`, for which the AC50 in data set [4] was 99.8 µM (active).
Turning to `CC(C)c1nnc(NC(=O)c2c(O)c3cccc4c3n(c2=O)CCC4)s1`, the CC50 was 17.1 µM (active) in [5] and 8.21 µM (active) in data set [6]. Besides, the IC50 in data set [7] was 7.34 µM (active).
Take `CCC(C)NC(=O)C1CCN(C(=O)c2ccccc2)CC1` (stereo unspecified): in data set [8], the half-maximal activity concentration (AC50) result is reported as “inconclusive”.
As for `O=C(COc1ccc(Cl)cc1)Nc1ccc(N2CCN(C(=O)c3ccco3)CC2)cc1`, the figures for the half-maximal activity concentration (AC50) entry in [8] and in [9] were “inconclusive” and 1.12 µM (inconclusive), respectively.
`C[C@]12CC[C@H]3c4ccc(O)cc4CC[C@@H]3[C@H]1CC[C@@H]2OC(=O)CCC1CCCC1`: the half-maximal activity concentration (AC50) entry in [8] is “inconclusive”; in data set [10], 6.31 µM (inconclusive).
As for `CC(C)Nc1cc(C(C)(C)C)nc2c(-c3ccccc3)cnn12`, the EC50 was 13.6 µM (active) in data set [11], 6.01 µM (active) in [12] and 15.9 µM (active) in data set [13]. Also, the AC50 in [4] is 58.2 µM (active).
Turning to `O=C1N=C(N2CCC(Cc3ccccc3)CC2)S/C1=C/c1c[nH]nc1-c1ccccc1`, the AC50 result in data set [8] is on record as “inconclusive”.
Consider `CC(C)(C)c1ccc(C(=O)N2CCCC2)s1`, for which, in data set [5], the CC50 was > 20 µM (active).
Consider `O=C(NCCC1=CCCCC1)NC12CC3CC(CC(C3)C1)C2`, for which the concentration for a half-maximal effect (EC50) in data set [14] is 6.24 µM (active). Also, the CC50 in data set [15] is > 40 µM (active). For the same compound, the AC50 in data set [4] was 215 µM (active).
On to `CCOC(=O)c1ccc(N2N=C(C)/C(=C/C=C/c3ccco3)C2=O)cc1`, for which the half-inhibitory concentration (IC50) in data set [16] is > 100 µM (active).
Regarding `COc1c(O)cccc1/C=N/NC(=O)Cn1ccnc1C`, the IC50 in data set [16] was 20.4 µM (active); in [17], > 79 µM (inactive).
As to `CN(C)c1ccc(/N=C/C=C2\N(C)c3ccccc3C2(C)C)cc1`, the EC50 in data set [18], in data set [20] and in data set [23] was > 79.4 µM (not active) throughout. Also, the CC50 in data set [19] is 100 µM (active). The AC50 in data set [21] was 15.8 µM (inconclusive). Further, the half-maximal inhibitory concentration (IC50) in data set [16] is 13.8 µM (active); in data set [22] it was 12.2 µM (active).

The values are drawn from ChEMBL document CHEMBL1201862, “PubChem BioAssay data set” (2004).
